Data reported in patent US20120129953A1, “TINGLING AND SALIVATING COMPOSITIONS” (FIRMENICH SA, priority 2006, published 2012).

Assay: Blind test panel evaluation of sugar-free hard-boiled candies by trained evaluators
Assay type: in vivo
Settings: hard-boiled candy
Protocol: The composition above was then used to prepare sugar-free hard-boiled candies, as follows: Isomalt (100 g) and water (30 g) were mixed and heated to 160° C. in a copper pan. At 160° C., the copper pan was removed from the heat and placed in a warm water bath (40° C.). When the temperature reached 135° C., aspartame, acesulfame-K, the liquid acidulant mixture (1.0%) and flavor were added. The cooked mass was poured at ambient temperature into appropriate Teflon® molds.
The following Table I summarizes the ingredients and respective dosages used in the preparation as described here above of a control hard-boiled candy according to the prior art and containing only citric acid as acidulant and a candy prepared according to the invention.
The Control candy and the Invention Candy were then evaluated by a panel of trained evaluators, on a blind test, and the results of this evaluation are shown in FIG. 1.

## O=C(O)CC(O)(CC(=O)O)C(=O)O [Citric acid]
  impact and sourness: deliver the expected effect
